Test results reported in patent US5532231A, “Antibacterial agent” (priority 1994, dated 1996).

How the values were obtained:
E. coli ESS [1] = assay: Bactericidal effect when bound to mouse tissues; format: cell-based, Escherichia coli; conditions: 4 μg TA or 20 μg Focusin, 5 h
Description: Two mice were sacrificed by exposure to ether. The bladder, eyes, intestines, lungs, heart, teeth, liver, spleen and kidneys were removed by dissection. Each experimental set consisted of three test tubes. A piece of each tissue type was placed in each of the three test tubes. The amount of tissue per tube were as follows: bladder 1/3, eye 1/2, intestine 1 cm, lung 1/2, heart 1/3, fang tooth 1/2, liver 1/3, spleen 1/3 and kidney 1/2. One test tube contained a control tissue which was treated only with the solvent used for dissolving the antibacterial agent, usually 50% ethanol. The second and third test tubes contained tissues were treated with 4 μg TA or 20 μg Focusin, respectively.
Following application of the antibacterial agent or the control solution, the tissues were allowed to dry in a hood for 30 mins., and then placed in the test tubes.
One milliliter of sterile saline was then added to each test tube and the tubes were then incubated with shaking (50 rpm) at 37° C. for one hour. The amount of antibacterial agent that was released to the saline was measured following chloroform extraction by the disc filter assay.
The tissues were then transferred to exponentially growing cultures of E. coli ESS in NB at a concentration of 10^5 cells/ml. Incubation was at 37° C. and continued for 5 hours, following which the number of viable cells was checked.

E. coli ESS [2] = assay: Release of Focusin from mouse tissue: inhibition by the 4th wash liquid; format: cell-based, Escherichia coli; conditions: for Inhibition % by the 4th wash liquid: 10 μg Focusin
Description: (§1) Focusin was tested in the same manner as that described above (under 8.1) with the exception that the tissues in the test tube were washed four times with a solution of 1 ml sterile saline. Each saline wash was for 1 hour at 37° C. Following incubation, the washing saline solution was added to an exponentially growing cultures of E. coli ESS in a concentration of 10^5 cells/ml.
(§2) The cultures with the saline wash were incubated at 37° C. for 6 hours and then viable cell count was performed in order to estimate the amount of killing by the antibacterial agent that were released from the tissues. After the four washes the tissues were transferred to 10^5 E. coli ESS log cultures and were then incubated for 5 hours. The tissues were transferred in this way for three times, each time the percentage of inhibition by the treated tissue was measured by viable count.
(§3) The tissues were treated as described in Section 8.2 above.

tested bacterial strains = assay: Antimicrobial spectrum, overall; format: cell-based
Description: (§4) Saturated solutions of TA and Focusin were prepared by adding 1.14 μg TA and 7 μg Focusin to 1 ml LB (final conc. of 1% ethanol). About 10^5 bacteria of various strains were then added. The control was bacteria in the same medium with no antibacterial agents. The bacteria were introduced at 37° C. with shaking at 100 rpm. When the control became turbid, viable cell count was performed on LB agar plates. Growth inhibition is presented as percentage of the no antibiotic control.

Bacillus subtilis = assay: Antimicrobial spectrum, liquid media, viable cell count; format: cell-based; conditions: saturating concentrations
Description: as §4

Enterobacter = assay: as above; format: cell-based; conditions: saturating concentrations
Description: as §4

Erwinia herbicola = assay: as above; format: cell-based; conditions: saturating concentrations
Description: as §4

E. coli ESS [3] = assay: Killing effect of the washed treated mouse tissue; format: cell-based, Escherichia coli; conditions: for Inhibition % by the treated tissue*** / Inhibition % by the treated tissue**: 10 μg Focusin; for Inhibition % by the treated tissue***: after third transfer
Description: as §1, §2, §3
After the fourth wash, the treated tissues were transferred to E. coli ESS cultures (10^5 cells) in nutrient broth. The culture tubes were then incubated at 37° C. for 6 hours and the extent of growth inhibition was measured by viable cell count. The treated tissues were transferred to E. coli cultures two more times (a total of three times), and each time the percentage of growth inhibition by the treated tissues was checked.

[4] = format: physicochemical
Description: Focusin and TA at concentrations of 3 mg/ml were diluted either in ethanol or in saline containing 1% ethanol to yield a final concentration in each case of 30 μg/ml. The solutions were mixed at 37° C. for one hour under shaking, and then were centrifuged at 5000 g for 10 minutes. Several samples were taken from the supernatants of the tubes and were applied on disc filters in order to determine the concentration of the antibacterial agents in the saline and ethanol solutions, by the paper disc bioassay method.

E. coli ESS Kan^r = assay: Paper disc filter antibiotic assay (zone of inhibition); format: cell-based, Escherichia coli
Description: Escherichia coli ESS Kan^r, is a kanamycin resistant strain of E. coli ESS, derived by transducing E. coli ESS with P1:TnV, Kan^r. This strain was used for the standard antibiotic assays.
LB Kan medium was solidified by 1.5% Bacto agar (Difco). For the antibiotic assay, Nutrient Broth agar plates were used. NB medium is 0.8% Nutrient Broth (Difco) containing 0.5% NaCl (Merck). NB was solidified by 1.8% Bacto agar (Difco). The NB plates were overlaid by 3.5 ml NB soft agar (0.9% Bacto agar) mixed with 0.1 ml E. coli ESS Kan^r overnight culture.
Antibiotic activity against E. coli ESS Kan^r was determined by the paper disc filter assay (Leo et al., 1945). Unknown quantities of antibiotic TA or Focusin, dissolved in ethanol, saline or NB were applied to paper disc filters (6 mm diameter; Schleicher and Schull). After allowing the ethanol to evaporate in the hood for about 15 mins, the dry filters were placed on nutrient broth plates which had been overlaid with an overnight culture of E. coli ESS Kan^r as described above.
The diameter of the zone of inhibition was recorded after 18 hours in incubation at 37° C. The concentration of the antibacterial agents were determined from a standard inhibition curve prepared with known quantities of TA and Focusin.

Mycobacteria smegmatis = assay: Antimicrobial spectrum, liquid media, viable cell count; format: cell-based, Mycobacterium smegmatis; conditions: saturating concentrations
Description: as §4

## CCCC1OC(=O)C(C)CC(C)CCCCC(=O)CCCC(CC)CCCC(COC)CCC(O)C(O)CC(O)CNC1=O (centres unmarked) [Focusin]
E. coli ESS [1]; bladder
  Inhibition % by the treated tissue: 100%
E. coli ESS [1]; heart
  Inhibition % by the treated tissue: 90%
E. coli ESS [1]; intestine
  Inhibition % by the treated tissue: 100%
E. coli ESS [1]; kidney
  Inhibition % by the treated tissue: 100%
E. coli ESS [1]; liver
  Inhibition % by the treated tissue: 94%
E. coli ESS [1]; lungs
  Inhibition % by the treated tissue: 100%
E. coli ESS [1]; spleen
  Inhibition % by the treated tissue: 100%
E. coli ESS [1]; teeth
  Inhibition % by the treated tissue: 100%
E. coli ESS [2]; all tissues except liver
  inhibition of E. coli growth by the fourth liquid wash (in words): completely inhibit the E. coli growth
E. coli ESS [2]; bladder
  Inhibition % by the 4th wash liquid: 100%
E. coli ESS [2]; eye
  Inhibition % by the 4th wash liquid: 100%
E. coli ESS [2]; heart
  Inhibition % by the 4th wash liquid: 100%
E. coli ESS [2]; intestine
  Inhibition % by the 4th wash liquid: 100%
E. coli ESS [2]; kidney
  Inhibition % by the 4th wash liquid: 100%
E. coli ESS [2]; liver
  Inhibition % by the 4th wash liquid: 67%
E. coli ESS [2]; lungs
  Inhibition % by the 4th wash liquid: 100%
E. coli ESS [2]; spleen
  Inhibition % by the 4th wash liquid: 100%
E. coli ESS [2]; teeth
  Inhibition % by the 4th wash liquid: 100%
Tested bacterial strains
  antibacterial activity spectrum (in words): broad spectrum antibacterial activity against both Gram-positive and Gram-negative bacteria
Bacillus subtilis
  killing: 100%
Enterobacter
  killing: 100%
Erwinia herbicola
  killing: 100%
E. coli ESS [3]; all tissues, first transfer
  inhibition by the washed tissues containing bound focusin: ≥ 99%
E. coli ESS [3]; bladder and eye
  inhibition after the third transfer (in words): no inhibition was observed
E. coli ESS [3]; bladder
  Inhibition % by the treated tissue***: 0%
E. coli ESS [3]; bladder, first transfer
  Inhibition % by the treated tissue**: > 99%
E. coli ESS [3]; eye
  Inhibition % by the treated tissue***: 0%
E. coli ESS [3]; eye, first transfer
  Inhibition % by the treated tissue**: > 99%
E. coli ESS [3]; heart
  Inhibition % by the treated tissue***: 98%
E. coli ESS [3]; heart, first transfer
  Inhibition % by the treated tissue**: 100%
E. coli ESS [3]; intestine
  Inhibition % by the treated tissue***: 38%
E. coli ESS [3]; intestine, first transfer
  Inhibition % by the treated tissue**: 100%
E. coli ESS [3]; kidney
  Inhibition % by the treated tissue***: 90%
E. coli ESS [3]; kidney, first transfer
  Inhibition % by the treated tissue**: 100%
E. coli ESS [3]; liver
  Inhibition % by the treated tissue***: 100%
E. coli ESS [3]; liver, first transfer
  Inhibition % by the treated tissue**: 99%
E. coli ESS [3]; lungs
  Inhibition % by the treated tissue***: 17%
E. coli ESS [3]; lungs, first transfer
  Inhibition % by the treated tissue**: 100%
E. coli ESS [3]; spleen
  Inhibition % by the treated tissue***: 98%
E. coli ESS [3]; spleen, first transfer
  Inhibition % by the treated tissue**: 100%
E. coli ESS [3]; teeth
  Inhibition % by the treated tissue***: 91%
E. coli ESS [3]; teeth, first transfer
  Inhibition % by the treated tissue**: 100%
[4]
  aqueous solubility compared with TA (in words): higher aqueous solubility than TA
  solubility in ethanol: completely soluble
[4]; saline with 1% ethanol, 1 h
  solubility in saline: about 7 μg/ml
E. coli ESS Kan^r; high concentrations
  activity relative to TA at high concentrations: 1/10
E. coli ESS Kan^r; low concentrations
  activity relative to TA at low concentrations: approximately 1/8
E. coli ESS Kan^r; zone 11 mm, paper disc
  amount giving an inhibition zone of 11 mm: 640 ng
E. coli ESS Kan^r; zone about 2 mm, paper disc
  amount required to obtain a zone of inhibition of about 2 mm: 60 ng
Mycobacteria smegmatis
  killing: 0%
